Assay results as given in ChEMBL document CHEMBL3507680, “University of Dundee, Gates Library screen for HepG2 cell viability”.

Assay: Human HepG2 cell viability assay in 384 well format
Type: toxicity, cell-based
Design: dose 125 nL, time 70.5 hour; cytotoxicity at 70.5 h: concentration not given beside the values
Details: HepG2 cells, read-out: Inhibition

Compound | cytotoxicity at 70.5 h
CCCc1n[nH]c(C2CN(CCn3cccn3)CCO2)n1 (centres undefined) | -6.79%
COc1nccnc1-c1cc(NC2CCNCC2)nc2[nH]ccc12 | -0.195%
CNC(=O)[C@@H](C1CCCCC1)N1CCC[C@H]1C(=O)N(C)CCN(C)C | -4.67%
CC(Cn1ccnc1)NC(=O)Nc1ccccn1 (centres undefined) | 10.5%
COc1ccc(OC)c(CNCc2ccnc(N3CCCCC3)c2)c1 | -8.18%
O[C@H]1CN(Cc2cccc(C(F)(F)F)c2)CC[C@@]12CCCO2 | 15.6%
CCCc1cc(NC(=O)c2cc(N3CCNC3=O)c(F)cc2F)n[nH]1 | 1.56%
COCCN(C)CCN1CC2(CCN(C3CCOCC3)CC2)OC1=O | 20.5%
Cc1ccc(NCc2ccccc2C#N)cc1-n1cnnn1 | 0.552%
CCCOc1ncccc1CNc1nnc(C)c(C)c1C#N | 21.8%
CCC(=O)NC(CC)c1ccccc1C (centres undefined) | -5.25%
Cc1nc(CN(Cc2cccs2)C2CCS(=O)(=O)C2)oc1C (centres undefined) | -16%
Cn1nccc1CN1CCCC(COc2ccccc2F)C1 (centres undefined) | -4.6%
COCc1nc(CN2CCN(c3ccc(OC)cc3)C(=O)C2C)no1 (centres undefined) | -27.3%
Cc1ccc2nc(C)c(C)c(C(=O)NCCCn3ccnn3)c2c1 | 3.79%
O=C(c1cnccn1)N1C[C@@H]2CC[C@H](C1)N(S(=O)(=O)c1cccnc1)C2 | 7.54%
CC(NC(=O)c1ccc(C(N)=O)cc1)c1cccc(N2CCOC2=O)c1 (centres undefined) | 0.0239%
CCN(C(=O)C1CCC1)C(c1cccnc1)c1ccc2c(c1)CCO2 (centres undefined) | 38.8%
COC(=O)CCCN(C)C(=O)c1cc(F)cc2[nH]cnc12 | 23.5%
CCN1CCN(c2ccc(C(=O)NC(C)C(=O)N(C)C)cc2)CC1 (centres undefined) | -4.6%
Cc1nnc2n1CCN(Cc1c(Cl)ccc3cccnc13)C2 | 26.2%
COC(=O)[C@H](C)NC(=O)COc1nn(C)c2nc(C)cc(C)c12 | -16.3%

Compound | cytotoxicity at 70.5 h
Cc1cc(-c2cnc(N3CCNC(=O)C3)nc2-c2ccc(C)o2)on1 | -16.3%
CC(C(=O)Nc1nccs1)N1CCc2nn(C)c(=O)cc2C1 (centres undefined) | 20.7%
COc1ccc(S(=O)(=O)NCCC(O)c2cccs2)c(C)c1 (centres undefined) | -8.98%
O=C(COCc1ccccc1)N1CCN(c2ccc(Cl)cn2)CC1 | -4.29%
O=C(c1c[nH]cn1)N1CCC(F)(F)C2(CCN(c3ncccn3)C2)C1 (centres undefined) | -5.46%
O=c1ccc2c([nH]1)CCC(NCc1ccc3c(c1)OCO3)C2 (centres undefined) | -1.6%
N[C@H]1CCCN(C(=O)c2cnc(COc3ccccc3)nc2O)C1 | -9.44%
Cc1nn(CC(C)C)c(N(C)C)c1CNCc1ccc2c(c1)OCO2 | -2.13%
Cc1cc2c(=O)n3c(nc2s1)CCN(C(=O)c1ccnn1C(C)C)CC3 | -7.45%
CCSCC(C)NCc1nn(C)c2ccc(C)cc12 (centres undefined) | -5.67%
COc1ccc(CN(C)C2CCN(C(=O)C(C)C)CC2)c2cccnc12 | -10.3%
CS(=O)(=O)Nc1ccc(-n2c(CCCO)nc3ccccc32)cn1 | 0.667%
c1coc(CN2CCC3(CC2)COC(COCC2CCOCC2)C3)c1 (centres undefined) | -12.1%
O=S(=O)(NCC1(c2cccs2)CCOCC1)c1ccc2c(c1)OCCO2 | 12%
CCn1c(C)nnc1SCCNC(=O)Cn1cnc2ccccc2c1=O | -4.84%
CN(C)C[C@H]1OC[C@@H]2CCN(C(=O)Cc3cccs3)C[C@@H]21 | -9.21%
O=C(C1CCOCC1)N1CC[C@H]2[C@H]1CCN2c1nncs1 | -0.658%
CN(C)c1ccc(CNC(=O)c2ccc(Cl)cc2F)cc1 | 3.13%
CC(C)c1nc(C2CCCN(c3nccc(N4CCCC4)n3)C2)no1 (centres undefined) | -2.95%
O=S1(=O)CCN(CCCc2ccc(Cl)cc2)CC1 | -6.76%
Cc1nc(C)n(CC2CCCCN2Cc2ncc(C(C)(C)C)o2)n1 (centres undefined) | 8%
CCS(=O)(=O)N1CCC2(CC1)CC[C@@]1(C(=O)NC)CN(C(C)=O)C[C@@H]21 | 11%
